Assay results from ChEMBL document CHEMBL1201862, “PubChem BioAssay data set” (2004).
Activity calls are given as the source filed them.

How the values were obtained:
[1] = biological target: Peroxisome proliferator-activated receptor gamma/Nuclear receptor coactivator 1 (Homo sapiens, UniProt P37231); test: (§1) TR-FRET dose response biochemical High Throughput Screening assay for agonists of the steroid receptor coactivator 1 (SRC-1) recruitment by the peroxisome proliferator-activated receptor gamma (PPAR gamma): non-selective agonists. [Related pubchem assays (depositor defined):AID1300, AID1808, AID504735, AID631]; format: protein assay
[2] = biological target: Peroxisome proliferator-activated receptor gamma/Nuclear receptor coactivator 3 (Homo sapiens, UniProt P37231); test: as §1, with “3 (SRC-3)” for “1 (SRC-1)”, “assays: 1301 (Confirmation screen.), 1048 (Primary screen.)]” for “assays (depositor defined):AID1300, AID1808, AID504735, AID631]”; format: functional
[3] = biological target: Peroxisome proliferator-activated receptor gamma/Nuclear receptor coactivator 2 (Homo sapiens, UniProt P37231); test: TR-FRET dose response biochemical High Throughput Screening assay for agonists of the steroid receptor coactivator 2 (SRC-2) recruitment by the peroxisome proliferator-activated receptor gamma (PPAR gamma): non-selective agonists. [Related pubchem assays: 1297, 1032 ]; format: functional
[4] = biological target: Photoreceptor-specific nuclear receptor (Homo sapiens, UniProt Q9Y5X4); format: functional, cell-based;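 further: CHO-S cells with Gal4-NCOR and VP16-NR2E3 two-hybrid luciferase reporter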
[5] = biological target: SWI/SNF-related matrix-associated actin-dependent regulator of chromatin subfamily A member 2 (Homo sapiens, UniProt P51531); test: Luminescence-based cell-based high throughput dose response assay to identify activators of the function of SWI/SNF related, matrix associated, actin dependent regulator of chromatin, subfamily a, member 2 (SMARCA2, BRM).; format: functional
Sequence of SWI/SNF-related matrix-associated actin-dependent regulator of chromatin subfamily A member 2 (P51531 whole entry): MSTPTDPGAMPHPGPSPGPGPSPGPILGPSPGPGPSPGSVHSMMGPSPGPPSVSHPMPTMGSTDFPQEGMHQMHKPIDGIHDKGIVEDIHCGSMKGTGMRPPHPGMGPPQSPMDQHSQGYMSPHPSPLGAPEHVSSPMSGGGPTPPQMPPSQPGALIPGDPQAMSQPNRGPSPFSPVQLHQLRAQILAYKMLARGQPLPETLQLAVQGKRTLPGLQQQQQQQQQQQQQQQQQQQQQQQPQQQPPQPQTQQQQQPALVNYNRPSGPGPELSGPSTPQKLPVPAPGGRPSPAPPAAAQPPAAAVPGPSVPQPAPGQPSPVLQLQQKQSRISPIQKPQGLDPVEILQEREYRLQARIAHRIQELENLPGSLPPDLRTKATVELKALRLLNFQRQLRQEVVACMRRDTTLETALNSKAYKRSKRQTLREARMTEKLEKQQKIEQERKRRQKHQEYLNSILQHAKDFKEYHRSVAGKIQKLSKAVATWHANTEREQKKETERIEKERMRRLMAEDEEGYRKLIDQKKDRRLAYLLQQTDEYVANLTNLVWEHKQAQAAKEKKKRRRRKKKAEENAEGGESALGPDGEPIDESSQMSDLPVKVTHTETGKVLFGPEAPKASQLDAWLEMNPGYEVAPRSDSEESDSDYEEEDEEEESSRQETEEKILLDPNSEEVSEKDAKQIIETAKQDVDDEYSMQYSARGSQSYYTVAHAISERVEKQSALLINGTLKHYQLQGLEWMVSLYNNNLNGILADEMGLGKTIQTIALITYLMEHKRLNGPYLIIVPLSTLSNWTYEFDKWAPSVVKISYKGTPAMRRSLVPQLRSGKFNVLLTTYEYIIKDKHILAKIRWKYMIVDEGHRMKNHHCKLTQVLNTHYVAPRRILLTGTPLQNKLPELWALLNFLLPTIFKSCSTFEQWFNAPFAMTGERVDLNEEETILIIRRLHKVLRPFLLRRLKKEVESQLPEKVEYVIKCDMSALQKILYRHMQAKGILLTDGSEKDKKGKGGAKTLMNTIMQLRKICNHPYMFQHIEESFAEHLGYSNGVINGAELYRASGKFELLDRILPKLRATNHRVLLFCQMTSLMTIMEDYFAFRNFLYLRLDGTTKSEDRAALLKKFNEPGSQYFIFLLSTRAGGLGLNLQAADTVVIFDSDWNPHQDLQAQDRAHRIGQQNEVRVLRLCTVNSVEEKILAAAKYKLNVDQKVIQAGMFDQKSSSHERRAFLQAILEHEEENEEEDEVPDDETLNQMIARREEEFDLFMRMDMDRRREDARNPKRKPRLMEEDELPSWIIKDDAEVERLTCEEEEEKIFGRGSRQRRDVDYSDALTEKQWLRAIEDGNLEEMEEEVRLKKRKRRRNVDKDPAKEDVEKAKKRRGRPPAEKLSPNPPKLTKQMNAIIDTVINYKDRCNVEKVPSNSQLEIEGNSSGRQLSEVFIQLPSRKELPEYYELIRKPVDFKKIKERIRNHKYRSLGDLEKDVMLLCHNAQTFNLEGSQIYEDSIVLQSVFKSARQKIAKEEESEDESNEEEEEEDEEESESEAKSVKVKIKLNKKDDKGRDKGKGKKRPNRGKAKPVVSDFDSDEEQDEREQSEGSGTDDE

[6] = Counterscreen for activators of the function of SWI/SNF related, matrix associated, actin dependent regulator of chromatin, subfamily a, member 2 (SMARCA2, BRM): Luminescence-based cell-based high throughput dose response assay to identify non-selective compounds using the VP16 reporter assay.; format: functional
Caspase-6 = biological target: T1, Caspase-6 (Homo sapiens, UniProt P55212); test: human caspase-6 inhibitors, dose response, biochemical, VEID-R110 fluorescence, dry powder retest (AID 743332)
T1 sequence (P55212 whole entry): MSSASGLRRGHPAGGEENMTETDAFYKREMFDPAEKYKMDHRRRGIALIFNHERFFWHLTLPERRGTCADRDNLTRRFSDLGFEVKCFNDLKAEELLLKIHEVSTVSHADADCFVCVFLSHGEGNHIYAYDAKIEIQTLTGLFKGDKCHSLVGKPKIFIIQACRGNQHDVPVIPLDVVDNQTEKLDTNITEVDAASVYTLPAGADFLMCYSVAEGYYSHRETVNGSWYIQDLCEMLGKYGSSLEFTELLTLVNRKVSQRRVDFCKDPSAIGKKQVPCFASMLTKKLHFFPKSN

Major prion protein = Major prion protein (Homo sapiens, UniProt P04156); format: functional, cell-based
[7] = Late stage assay provider results from the probe development effort to identify inhibitors of the Plasmodium falciparum M18 Aspartyl Aminopeptidase (M18AAP): radiolabel-based cell-based dose response assay to identify compounds that inhibit P. falciparum growth in RBCs, Set 2..; format: functional
[8] = PAX2 cell-based inhibition, dose response, selectivity assay for PAX8 inhibitor project, plate reader, dry powder samples (AID 743048); format: functional;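 further: HEK293 cells carrying a WT1 promoter luciferase reporter driven by expressed Pax2; potency is for inhibition of Pax2 driven reporter signal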
[9] = NIH:OVCAR-3 ovarian cancer cell cytotoxicity, dose response, PAX8 inhibitor project, plate reader, dry powder samples (AID 743044); format: functional, cell-based
[10] = IGROV1 ovarian cancer cell cytotoxicity, dose response, PAX8 inhibitor project, plate reader, dry powder samples (AID 743043); format: functional, cell-based; conditions: IGROV-1
[11] = cytotoxicity in COV434 cells, dose response, cytotoxicity control for PAX8 inhibitor project, cell-based, plate reader, dry powder, SA7 (AID 743145); format: functional
[12] = cytotoxicity in OV-90 ovarian cancer cells, dose response, PAX8 inhibitor project, cell-based, plate reader, dry powder, SA8 (AID 743149); format: functional
[13] = cytotoxicity dependent on PAX8, dose response, cell-based, plate reader, dry powder (AID 743049); format: functional
[14] = biological target: 1-phosphatidylinositol 4,5-bisphosphate phosphodiesterase gamma-1 (Homo sapiens, UniProt P19174); test: Counterscreen for inhibitors of phospholipase C isozymes (PLC-B3): Fluorescence-based biochemical high throughput dose response assay to identify inhibitors of phospholipase C isozymes (PLC-gamma1).
Sequence of 1-phosphatidylinositol 4,5-bisphosphate phosphodiesterase gamma-1 (P19174 whole entry): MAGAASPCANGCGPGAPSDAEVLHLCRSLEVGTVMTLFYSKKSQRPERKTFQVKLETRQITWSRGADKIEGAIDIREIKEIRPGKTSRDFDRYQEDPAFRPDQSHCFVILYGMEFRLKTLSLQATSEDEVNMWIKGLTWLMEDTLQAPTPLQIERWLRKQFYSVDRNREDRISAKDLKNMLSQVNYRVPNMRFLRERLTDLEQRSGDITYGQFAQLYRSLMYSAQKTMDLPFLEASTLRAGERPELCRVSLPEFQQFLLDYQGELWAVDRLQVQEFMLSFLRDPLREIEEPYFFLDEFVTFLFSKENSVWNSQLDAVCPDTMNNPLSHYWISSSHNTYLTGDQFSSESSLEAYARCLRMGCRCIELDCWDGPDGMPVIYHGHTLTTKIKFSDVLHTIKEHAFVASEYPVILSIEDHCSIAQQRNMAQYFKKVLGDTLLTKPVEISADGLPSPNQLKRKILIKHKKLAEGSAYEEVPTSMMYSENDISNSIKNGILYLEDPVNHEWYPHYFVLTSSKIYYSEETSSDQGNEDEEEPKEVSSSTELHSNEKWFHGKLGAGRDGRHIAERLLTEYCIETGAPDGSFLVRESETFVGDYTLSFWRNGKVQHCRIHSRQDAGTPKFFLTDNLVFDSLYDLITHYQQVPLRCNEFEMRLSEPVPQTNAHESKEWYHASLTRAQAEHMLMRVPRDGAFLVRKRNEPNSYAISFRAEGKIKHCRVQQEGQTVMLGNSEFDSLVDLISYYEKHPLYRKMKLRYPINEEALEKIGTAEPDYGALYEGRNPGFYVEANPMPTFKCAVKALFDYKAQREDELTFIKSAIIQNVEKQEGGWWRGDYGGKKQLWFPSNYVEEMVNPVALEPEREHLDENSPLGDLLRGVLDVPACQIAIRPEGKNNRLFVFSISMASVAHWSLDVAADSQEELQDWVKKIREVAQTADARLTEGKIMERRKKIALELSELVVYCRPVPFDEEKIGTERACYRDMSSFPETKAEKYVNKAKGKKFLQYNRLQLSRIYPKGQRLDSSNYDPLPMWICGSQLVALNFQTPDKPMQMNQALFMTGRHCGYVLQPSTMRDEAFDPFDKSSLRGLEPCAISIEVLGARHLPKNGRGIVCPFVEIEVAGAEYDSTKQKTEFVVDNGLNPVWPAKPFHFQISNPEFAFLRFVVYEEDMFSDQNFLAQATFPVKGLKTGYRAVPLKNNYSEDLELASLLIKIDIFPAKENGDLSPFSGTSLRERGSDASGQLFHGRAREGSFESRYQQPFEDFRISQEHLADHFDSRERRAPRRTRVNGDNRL

[15] = biological target: 1-phosphatidylinositol 4,5-bisphosphate phosphodiesterase beta-3 (Homo sapiens, UniProt Q01970); test: Fluorescence-based biochemical high throughput dose response assay to identify inhibitors of phospholipase C isozymes (PLC-B3).
Sequence of 1-phosphatidylinositol 4,5-bisphosphate phosphodiesterase beta-3 (Q01970 whole entry): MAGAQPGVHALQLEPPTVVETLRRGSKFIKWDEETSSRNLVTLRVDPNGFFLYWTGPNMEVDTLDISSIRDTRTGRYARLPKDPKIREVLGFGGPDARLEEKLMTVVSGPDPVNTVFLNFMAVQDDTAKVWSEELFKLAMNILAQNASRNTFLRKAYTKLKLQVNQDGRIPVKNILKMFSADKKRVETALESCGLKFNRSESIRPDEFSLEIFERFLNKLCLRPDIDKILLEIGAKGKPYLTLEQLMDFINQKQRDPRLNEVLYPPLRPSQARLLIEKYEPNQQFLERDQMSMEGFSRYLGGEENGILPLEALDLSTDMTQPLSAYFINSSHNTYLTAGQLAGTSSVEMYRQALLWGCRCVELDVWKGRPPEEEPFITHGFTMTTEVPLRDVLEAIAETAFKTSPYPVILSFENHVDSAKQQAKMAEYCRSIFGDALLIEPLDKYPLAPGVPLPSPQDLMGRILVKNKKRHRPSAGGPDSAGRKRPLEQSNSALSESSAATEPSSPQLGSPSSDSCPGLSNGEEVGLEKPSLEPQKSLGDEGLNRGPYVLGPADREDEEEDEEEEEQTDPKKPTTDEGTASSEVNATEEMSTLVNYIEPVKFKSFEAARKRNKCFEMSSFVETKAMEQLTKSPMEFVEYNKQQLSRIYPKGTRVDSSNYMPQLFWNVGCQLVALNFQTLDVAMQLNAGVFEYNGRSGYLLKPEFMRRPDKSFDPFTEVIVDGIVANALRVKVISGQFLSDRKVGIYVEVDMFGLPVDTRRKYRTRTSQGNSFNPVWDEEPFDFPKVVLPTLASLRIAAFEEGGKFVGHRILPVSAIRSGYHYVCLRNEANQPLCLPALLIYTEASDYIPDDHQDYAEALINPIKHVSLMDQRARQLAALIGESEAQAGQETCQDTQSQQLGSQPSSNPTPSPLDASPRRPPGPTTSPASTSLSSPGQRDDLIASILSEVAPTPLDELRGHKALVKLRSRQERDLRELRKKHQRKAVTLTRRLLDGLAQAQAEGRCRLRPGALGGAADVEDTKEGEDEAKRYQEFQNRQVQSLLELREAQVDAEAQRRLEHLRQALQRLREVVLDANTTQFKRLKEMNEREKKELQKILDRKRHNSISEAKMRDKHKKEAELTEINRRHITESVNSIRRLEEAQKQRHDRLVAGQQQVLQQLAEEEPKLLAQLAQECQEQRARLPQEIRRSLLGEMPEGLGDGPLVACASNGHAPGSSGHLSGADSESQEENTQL

[16] = inhibitors of intracellular T. cruzi replication, confirmation, NIH3T3 host cells, beta-gal luminescence (AID 2044); format: functional, cell-based;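 further: intracellular parasites grown in NIH/3T3 mouse fibroblasts as host cells; luminescent beta-galactosidase reporter signal from transgenic T. cruzi replicating inside host cells; inhibitors lower the luminescence signal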
[17] = cytotoxicity toward NIH3T3 fibroblasts, dose response, counter-screen, cell-based, ATP luminescence, mouse fibroblasts (AID 2010); format: functional;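 further: cells exposed to compound for about 90 hours before reading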
[18] = ADAM10 inhibitors, peptide cleavage, dose response, biochemical, QFRET (AID 743254);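 further: ADAM10 enzyme with the DM2 quenched FRET peptide as substrate; EDANS fluorescence gain as the protease cuts the substrate; inhibitor potency against ADAM10 proteolytic activity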
[19] = biological target: Disintegrin and metalloproteinase domain-containing protein 17 (Homo sapiens, UniProt P78536); test: ADAM17 protease inhibitors, dose response, counter-screen for ADAM10 exosite inhibitor project, biochemical, quenched FRET substrate (AID 743253)
[20] = biological target: Oxysterols receptor LXR-beta (Homo sapiens, UniProt P55055); format: functional, cell-based;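 further: agonist activity at LXR measured by a cell-based luminescence readout across a dose range, run as a counterscreen for daf-12 agonists; HEK293 cells with Gal4-LXR fusion and GAL4-driven luciferase reporter; potency for activation of Gal4-LXR reporter so compounds are agonists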
Sequence of Oxysterols receptor LXR-beta (P55055 whole entry, the tested form may be a part): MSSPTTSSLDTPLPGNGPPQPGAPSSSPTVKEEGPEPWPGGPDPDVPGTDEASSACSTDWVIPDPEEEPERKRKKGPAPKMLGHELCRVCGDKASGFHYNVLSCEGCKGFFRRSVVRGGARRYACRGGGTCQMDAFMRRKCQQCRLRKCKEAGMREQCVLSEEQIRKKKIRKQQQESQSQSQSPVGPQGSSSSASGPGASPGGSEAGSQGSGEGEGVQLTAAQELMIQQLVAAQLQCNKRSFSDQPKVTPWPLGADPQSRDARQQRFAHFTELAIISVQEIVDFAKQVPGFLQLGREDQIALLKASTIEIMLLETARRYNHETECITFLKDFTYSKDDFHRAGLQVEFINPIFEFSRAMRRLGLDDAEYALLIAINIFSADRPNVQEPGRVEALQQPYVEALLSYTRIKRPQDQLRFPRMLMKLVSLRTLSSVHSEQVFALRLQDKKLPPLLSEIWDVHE

[21] = HepG2 cell cytotoxicity, dose response, cytotoxicity control, ATP luminescence, cherry-pick, activator set 2 (AID 1053143); format: functional, cell-based
fMet-Leu-Phe receptor = fMet-Leu-Phe receptor (Homo sapiens, UniProt P21462); test: FPR ligands, dose response (AID 519); format: functional
Sequence of fMet-Leu-Phe receptor (P21462 whole entry): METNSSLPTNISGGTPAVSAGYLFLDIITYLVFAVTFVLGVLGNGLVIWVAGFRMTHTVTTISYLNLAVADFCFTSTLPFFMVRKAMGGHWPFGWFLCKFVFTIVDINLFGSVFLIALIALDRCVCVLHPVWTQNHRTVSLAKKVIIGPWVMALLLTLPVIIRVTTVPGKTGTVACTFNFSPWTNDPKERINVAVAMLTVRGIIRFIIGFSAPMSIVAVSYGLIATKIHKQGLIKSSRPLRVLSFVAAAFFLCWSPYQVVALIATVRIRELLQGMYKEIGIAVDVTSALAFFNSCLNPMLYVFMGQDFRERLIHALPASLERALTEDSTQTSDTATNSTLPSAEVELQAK

Compound: CCn1c(=O)cc(SCC(=O)Nc2ccc(C)cn2)c2ccccc21
- EC50 [1]: > 79.4 µM (inactive)
- EC50 [2]: > 79.4 µM (not active)
- EC50 [3]: > 79.4 µM (not active)
- IC50 [4]: 0.469 µM (active)
- EC50 [5]: > 91.2 µM (inactive)
- EC50 [6]: > 91.2 µM (inactive)

Compound: N#Cc1ccc(C(=O)N2CCN(S(=O)(=O)c3ccccc3)CC2)cc1
- AC50 (Caspase-6): > 70 µM (inactive)

Compound: CN(C)S(=O)(=O)c1ccc(NC(=O)CSc2ncnc3ccccc23)cc1
- IC50 (Major prion protein): 16.5 µM (inactive)
- IC50 (cells): > 138 µM (inactive)

Compound: Cc1cccc2c(NCCc3ccc(O)c(O)c3)ccnc12
- IC50 [7]: 4.7 µM (active)

Compound: CN(C)CCCN(C(=O)CCOc1ccccc1)c1nc2c(F)cccc2s1
- AC50 [8]: > 100 µM (inactive)
- AC50 [9]: 44.9 µM (active)
- AC50 [10]: 44.1 µM (active)
- AC50 [11]: 22.8 µM (active)
- AC50 [12]: 13.1 µM (active)
- AC50 [13]: 10.8 µM (active)

Compound: ONC(=Nc1ccc(Cl)cc1)c1ccccc1
- IC50 [14]: > 122 µM (inactive)
- IC50 [15]: > 122 µM (inactive)

Compound: S=C(Nc1ccc(Nc2ccccc2)cc1)NC1CCCCCC1
- EC50 [16]: 2.21 µM (active)
- EC50 [17]: 29 µM (active)
- IC50 [18]: > 7.72 µM (active)
- IC50 [19]: > 69.5 µM (inactive)

Compound: Cn1c(NC(=O)CCC2CCCCC2)cc(=O)n(C)c1=O
- EC50 [20]: > 67.5 µM (inactive)

Compound: Cc1cc(NC(=O)c2ccco2)sc1C
- AC50 [21]: 26 µM (active)

Compound: COc1cc(C2C(C(=O)c3ccco3)=C(O)C(=O)N2CCc2ccccc2)ccc1O (stereo not given)
- Ki (fMet-Leu-Phe receptor): > 66.7 µM (inactive)
